# Experiments:
# [1] = Antibiotic plasma level and bioavailability after oral or enteral (duodenal) administration, rats (bioassay with E. coli 1346)
# Source text: Eine erste in vivo-Testanordnung war wie folgt: Als Versuchsobjekte wurden Menschen und Ratten eingesetzt, die ein β-Lactam-Antibiotikum sowohl oral als auch enteral erhielten. Für die orale Verabreichung wurden die Antibiotika in destilliertem Wasser oder in einem Träger wie Witepsol H15 allein oder zusammen mit CAPMUL MCM 90 und einem Resorptionsverstärker wie Natriumchenodeoxycholat (NaCDC) oder Chenodeoxycholsäure oder Natriumdeoxycholat (NaDC) oder Deoxycholsäure verwendet. In de gleichen Weise wurden die Antibiotika für die enterale Verabreichung hergerichtet und duodenal verabreicht.
# Plasmaspiegel der Antibiotika wurden im Blut aus der Armvene des Menschen und der Schwanzvene der Ratte nach Zentrifugieren bestimmt. Die Antibiotika-enthaltenden Blutproben von Ratten wurden durch Bioassay auf einer Nunc-Platte analysiert; E. coli 1346, über Nacht auf einer Antibiotika--Agar Nr. 1-Kultur kultiviert wurde mit Kochsalzlösung gewaschen, wobei eine Suspension mit 90% Durchlässigkeit auf einem Bausch und Lomb-Spectronic 20 (650 nm) hergestellt wurde. 16 ml der erhaltenen Suspension wurden zu 600 ml geschmolzenem Antibiotika-Agar Nr. 1 gegeben, 200 ml des beimpften Agars wurden auf jede Nunc-Platte (243 × 243 ×18 mm) gegeben. Die Agarplatten wurden ausgestanzt, so dass […] Proben in jede Höhlung gegeben werden konnten.
# Bei den vorstehend beschriebenen Versuchen wurden Lösungen des Wirkstoffs in destilliertem Wasser bei Raumtemperatur hergestellt und sofern ein Resorptionsverstärker anwesend war, dieser in feinverteilter Form langsam eingeführt, wobei eine feinteilige Suspension erhalten wurde.
# [2] = system: Ratten; test: Insulin effect on blood glucose level after injection into the duodenum of fasted, anaesthetised rats; type: in vivo; conditions: presence of NaCDC in the insulin preparations, summary of Tabelle 2
# Source text: In dieser Versuchsanordnung wurden Ratten über Nacht fasten gelassen, anästhesiert und der Wirkstoff durch Injektion in das Duodenum verabreicht. Blutproben aus dem Schwanz wurden zu verschiedenen Zeiten entnommen und auf chemisch vorbehandeltem Papier (Chemistrip bg. Boehringer Mannheim Diagnostics) mittels eines Accucheck bg Blutglukosemonitors (Biodynamics, Baltimore) ausgewertet.
# [3] = given with Natriumchenodeoxycholat instead of Wasser, summary of Tabelle 1
smiles,measurement,setting,value
CO[C@@]1(NC(=O)C(C(=O)O)c2ccc(O)cc2)C(=O)N2C(C(=O)O)=C(CSc3nnnn3C)CO[C@@H]21 (stereo partly drawn) [Moxalactam],Spiegel des Antibiotikums,[1]; in vivo,signifikant höhere Spiegel
CC1(C)S[C@@H]2[C@H](/N=C/N3CCCCCC3)C(=O)N2[C@H]1C(=O)O [Amdinocillin],Spiegel des Antibiotikums,[1]; in vivo,signifikant höhere Spiegel
CO/N=C(\C(=O)N[C@@H]1C(=O)N2C(C(=O)O)=C(CSc3nc(=O)c(=O)[nH]n3C)CS[C@H]12)c1csc(N)n1 [Ceftriaxon],Resorption von Ceftriaxon,[1]; in vivo,synergistisch verstärkt
same,Spiegel des Antibiotikums,[1]; in vivo,signifikant höhere Spiegel
same,Spiegel von Ceftriaxon,[1]; in vivo,erhöht
C[C@@H](O)[C@H]1C(=O)N2C(C(=O)O)=C(SCCN)C[C@H]12 [Thienamycin],Spiegel des Antibiotikums,[1]; in vivo,signifikant höhere Spiegel
"C[C@H](CCC(=O)O)[C@H]1CC[C@H]2[C@@H]3[C@H](O)C[C@@H]4C[C@H](O)CC[C@]4(C)[C@H]3CC[C@]12C [NaCDC, Natriumchenodeoxycholat]",Blutzucker,[2],signifikanten zeitweisen Verminderung des Blutzuckers
Cn1nnnc1SCC1=C(C(=O)O)N2C(=O)[C@@H](NC(=O)[C@H](O)c3ccccc3)[C@H]2SC1 [Cefamandol],Spiegel des Antibiotikums,[1]; [3],signifikant höhere Spiegel
NC(=O)OC[C@@H]1[C@H](NC(=O)/C(=N\OCC(=O)O)c2csc(N)n2)C(=O)N1S(=O)(=O)O [Carumonam],Spiegel des Antibiotikums,[1]; [3],signifikant höhere Spiegel

# Reference: patent EP0263493A2, “Pharmaceutic preparation to improve the gastro-intestinal resorption” (priority 1986, dated 1988)
